In patent US9149426B2, “Nanoparticle composition and methods to make and use the same” (priority 2012, dated 2015):

Tests used:
[1] = tested on: HEK-293 cells; assay: In vitro cytotoxicity, MTT assay; details: 1% Triton-X 100, 80 μM H2O2, 48 h
Protocol: The amount of lactic acid release was quantified by using lactate assay kit (BioVision Inc., Milpitas, Calif.) following manufacturer's specifications. […] Forty microliters of MTT reagent (5 mg/ml in phosphate buffered saline) was added to each well. After 2 h of incubation at 37° C., 200 μl of dimethylsulfoxide (DMSO) was added to each well to dissolve the formazan crystals. After 5 minutes, the optical absorbance was measured at 570 nm and converted to percent viability relative to control (untreated) cells. All samples were tested in quadruplicate.
One hundred microliters of diluted nanoparticles (0.1, 0.2, 0.3, 0.4, 0.5, 0.6, and 1 mg/ml) stock solution was added to each well and incubated with the cells for 48 h, and then replaced with growth medium (160 μl). MTT reagent (40 μl) was added to each well to form formazan. After 2 h of incubation at 37° C., 200 μl of dimethylsulfoxide (DMSO) was added to each well to dissolve the formazan crystals. After 5 m optical absorbance was measured at 570 nm and converted to percent viability relative to control (untreated) cells (n=4).

[2] = at 25° C.; cited from earlier work
[3] = tested on: Xenopus laevis frogs; assay: Effective dose in in vitro studies using frogs
[4] = Solubility of organic phase solvents in water or poly(ortho ester) polymer

Triton-X 100
Cell viability of positive controls [1]: 5%

CCOC(C)=O [Ethyl acetate]
Solubility in water [2]: (8.7% (w/w)

asialo, galactosylated, triantennary (NA3) oligosaccharides
Effective dose in vitro [3]: 1 nM

ClCCl [Dichloromethane]
Solubility of POE (poly(ortho ester) polymer) in the organic phase solvent [4]: Excellent solvent
Solubility in water [2]: Immiscible (1.6% (w/w)

OO [H2O2]
Cell viability of positive controls [1]: 8%

CC(C)=O [Acetone]
Solubility of POE (poly(ortho ester) polymer) in the organic phase solvent [4]: Immiscible
Solubility in water [2]: Very soluble
